Measurements from patent publication US7074789B2, “Kinase inhibitors” (Amgen Inc., priority 1999, dated 2006).

What was measured:
Type in all cases: biochemical
Kdr = target: T1, Kdr (Homo sapiens, UniProt P35968); assay: Kinase inhibition assay (33P transfer), Kdr; conditions: read-out: KDR-1
T1 construct: Kinases are expressed as either kinase domains or full length constructs; made in house
Method in brief: (§1)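 Radiometric readout: 33P incorporated into surface-bound poly(Glu,Tyr) 4:1 or poly(Arg,Ser) 3:1 is counted by liquid scintillation after a 0.5% phosphoric acid wash. Enzymes were GST or polyHis fusions (kinase domain or full length) from E. coli or High Five insect cells.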

AKT = target: T2, AKT (Homo sapiens, UniProt Q9Y243); assay: Kinase inhibition assay (33P transfer), AKT; conditions: Table 2, kinase inhibition class; read-out: AKT3-1
T2 construct: Kinases are expressed as either kinase domains or full length constructs; made in house
Method in brief: as §1

PDGFRB = target: T3, PDGFRB (Homo sapiens, UniProt P09619); assay: Kinase inhibition assay (33P transfer), PDGFRB; conditions: read-out: PDGFRB-1
T3 construct: Kinases are expressed as either kinase domains or full length constructs; made in house
T3 sequence (P09619 33-1106, species assumed): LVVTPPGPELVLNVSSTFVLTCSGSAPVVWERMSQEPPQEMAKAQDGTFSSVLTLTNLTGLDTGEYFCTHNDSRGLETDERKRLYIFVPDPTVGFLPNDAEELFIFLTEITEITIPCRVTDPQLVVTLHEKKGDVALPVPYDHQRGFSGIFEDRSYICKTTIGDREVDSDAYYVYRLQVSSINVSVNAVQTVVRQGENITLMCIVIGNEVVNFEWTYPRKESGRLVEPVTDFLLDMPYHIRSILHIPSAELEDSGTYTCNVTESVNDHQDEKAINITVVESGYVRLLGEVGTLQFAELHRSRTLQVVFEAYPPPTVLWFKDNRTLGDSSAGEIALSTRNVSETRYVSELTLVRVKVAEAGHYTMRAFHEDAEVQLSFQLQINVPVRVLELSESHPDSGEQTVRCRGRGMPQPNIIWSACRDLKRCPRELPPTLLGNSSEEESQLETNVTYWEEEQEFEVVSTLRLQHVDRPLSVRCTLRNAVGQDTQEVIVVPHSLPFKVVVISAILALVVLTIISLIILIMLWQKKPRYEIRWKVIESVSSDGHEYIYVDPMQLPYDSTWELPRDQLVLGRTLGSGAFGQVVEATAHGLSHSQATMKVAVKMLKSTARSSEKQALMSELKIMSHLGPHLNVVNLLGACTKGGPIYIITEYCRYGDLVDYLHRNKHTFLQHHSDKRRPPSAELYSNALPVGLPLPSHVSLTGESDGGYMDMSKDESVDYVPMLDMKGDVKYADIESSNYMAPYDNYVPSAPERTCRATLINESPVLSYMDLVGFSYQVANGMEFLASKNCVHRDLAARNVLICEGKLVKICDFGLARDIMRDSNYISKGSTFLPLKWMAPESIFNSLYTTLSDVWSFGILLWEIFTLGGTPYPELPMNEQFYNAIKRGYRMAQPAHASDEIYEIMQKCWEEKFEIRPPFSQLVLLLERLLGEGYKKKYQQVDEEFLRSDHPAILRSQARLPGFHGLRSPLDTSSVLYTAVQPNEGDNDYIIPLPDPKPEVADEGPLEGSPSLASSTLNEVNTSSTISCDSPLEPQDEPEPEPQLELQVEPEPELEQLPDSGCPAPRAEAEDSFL

EGFR = target: T4, EGFR (Homo sapiens, UniProt P00533); assay: Kinase inhibition assay (33P transfer), EGFR; conditions: Table 2, kinase inhibition class; read-out: EGFR-1
T4 construct: Kinases are expressed as either kinase domains or full length constructs; made in house
Method in brief: (§2)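 Activity read as 33P incorporation from ATP into poly(Glu,Tyr) 4:1 or poly(Arg,Ser) 3:1 substrate bound to microtiter plates, measured by scintillation after acid washing. Enzymes were affinity-purified GST or polyHis fusions (kinase domain or full length) from E. coli or baculovirus; IC50 = 50% reduction in labelled phosphate.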

c-Met = target: T5, c-Met (Homo sapiens, UniProt P08581); assay: Kinase inhibition assay (33P transfer), c-Met; conditions: Table 2, kinase inhibition class; read-out: Met-1
T5 construct: Kinases are expressed as either kinase domains or full length constructs; made in house
T5 sequence (P08581 25-1390): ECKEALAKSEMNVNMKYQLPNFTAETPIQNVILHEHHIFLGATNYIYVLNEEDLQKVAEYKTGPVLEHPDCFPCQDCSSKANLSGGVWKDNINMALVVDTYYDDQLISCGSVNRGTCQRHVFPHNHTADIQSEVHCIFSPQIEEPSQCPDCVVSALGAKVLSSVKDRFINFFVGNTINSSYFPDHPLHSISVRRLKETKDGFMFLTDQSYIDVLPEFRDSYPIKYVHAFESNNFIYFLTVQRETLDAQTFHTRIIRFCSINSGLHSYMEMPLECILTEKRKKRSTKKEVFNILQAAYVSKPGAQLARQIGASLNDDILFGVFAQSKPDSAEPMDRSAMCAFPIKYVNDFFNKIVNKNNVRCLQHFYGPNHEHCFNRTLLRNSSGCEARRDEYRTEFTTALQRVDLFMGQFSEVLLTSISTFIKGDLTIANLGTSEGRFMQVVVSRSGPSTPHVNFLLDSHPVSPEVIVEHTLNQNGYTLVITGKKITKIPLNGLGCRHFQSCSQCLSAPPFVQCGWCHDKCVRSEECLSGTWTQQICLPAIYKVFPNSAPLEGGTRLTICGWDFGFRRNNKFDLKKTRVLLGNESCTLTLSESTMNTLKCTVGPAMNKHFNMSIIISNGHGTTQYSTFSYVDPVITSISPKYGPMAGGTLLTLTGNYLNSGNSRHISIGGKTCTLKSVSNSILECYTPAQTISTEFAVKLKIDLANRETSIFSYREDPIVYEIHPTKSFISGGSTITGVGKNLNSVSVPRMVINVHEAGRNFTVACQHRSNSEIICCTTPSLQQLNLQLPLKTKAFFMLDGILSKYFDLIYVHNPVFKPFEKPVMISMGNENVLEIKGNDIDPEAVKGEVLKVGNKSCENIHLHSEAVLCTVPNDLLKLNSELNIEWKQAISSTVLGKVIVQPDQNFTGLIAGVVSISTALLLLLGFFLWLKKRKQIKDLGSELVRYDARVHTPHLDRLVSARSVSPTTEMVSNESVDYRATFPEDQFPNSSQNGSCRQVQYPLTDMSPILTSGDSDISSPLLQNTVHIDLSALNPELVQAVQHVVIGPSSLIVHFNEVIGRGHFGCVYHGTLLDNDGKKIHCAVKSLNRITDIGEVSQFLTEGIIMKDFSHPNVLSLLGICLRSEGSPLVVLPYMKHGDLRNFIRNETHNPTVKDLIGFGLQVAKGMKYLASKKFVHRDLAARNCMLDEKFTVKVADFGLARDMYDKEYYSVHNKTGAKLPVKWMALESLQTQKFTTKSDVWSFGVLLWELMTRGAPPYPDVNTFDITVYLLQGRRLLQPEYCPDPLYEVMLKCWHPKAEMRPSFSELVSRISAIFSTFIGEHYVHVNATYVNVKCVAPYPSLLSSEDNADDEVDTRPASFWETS
Method in brief: as §2

ErbB2 = target: T6, ErbB2 (Homo sapiens, UniProt P04626); assay: Kinase inhibition assay (33P transfer), ErbB2; conditions: read-out: ErbB2-2
T6 construct: Kinases are expressed as either kinase domains or full length constructs; made in house
Method in brief: as §2

Tek = target: T7, Tek (Homo sapiens, UniProt Q02763); assay: Kinase inhibition assay (33P transfer), Tek; conditions: read-out: Tek-1
T7 construct: Kinases are expressed as either kinase domains or full length constructs; made in house
T7 sequence (Q02763 23-1124, species assumed): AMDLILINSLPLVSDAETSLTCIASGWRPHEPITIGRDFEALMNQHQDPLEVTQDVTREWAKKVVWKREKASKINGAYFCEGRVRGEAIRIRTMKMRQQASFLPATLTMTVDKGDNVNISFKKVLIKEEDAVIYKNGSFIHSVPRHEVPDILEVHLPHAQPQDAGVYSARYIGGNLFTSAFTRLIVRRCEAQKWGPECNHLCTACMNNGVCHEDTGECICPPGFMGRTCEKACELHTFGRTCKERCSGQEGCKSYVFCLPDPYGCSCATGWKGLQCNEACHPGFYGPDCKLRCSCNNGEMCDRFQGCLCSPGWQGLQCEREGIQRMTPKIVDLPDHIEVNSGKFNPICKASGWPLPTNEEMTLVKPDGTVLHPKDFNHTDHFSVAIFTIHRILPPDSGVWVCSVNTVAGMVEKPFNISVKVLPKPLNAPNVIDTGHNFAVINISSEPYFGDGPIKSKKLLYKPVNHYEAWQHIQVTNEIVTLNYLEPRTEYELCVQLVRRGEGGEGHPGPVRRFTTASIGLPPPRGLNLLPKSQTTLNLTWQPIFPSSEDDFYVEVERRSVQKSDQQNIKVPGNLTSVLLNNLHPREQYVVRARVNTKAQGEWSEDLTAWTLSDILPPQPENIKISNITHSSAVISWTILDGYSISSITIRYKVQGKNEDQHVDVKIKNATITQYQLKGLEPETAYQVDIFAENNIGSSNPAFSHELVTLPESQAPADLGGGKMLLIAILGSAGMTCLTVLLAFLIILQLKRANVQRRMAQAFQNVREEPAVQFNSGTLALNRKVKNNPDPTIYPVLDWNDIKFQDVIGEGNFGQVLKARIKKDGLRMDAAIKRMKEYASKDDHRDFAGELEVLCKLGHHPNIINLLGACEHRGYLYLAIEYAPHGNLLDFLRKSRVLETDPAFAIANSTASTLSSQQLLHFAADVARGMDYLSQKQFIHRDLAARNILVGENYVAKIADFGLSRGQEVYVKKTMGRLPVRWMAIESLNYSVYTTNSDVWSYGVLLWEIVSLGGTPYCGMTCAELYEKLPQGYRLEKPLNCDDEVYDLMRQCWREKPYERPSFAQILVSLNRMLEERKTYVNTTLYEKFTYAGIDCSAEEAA
Method in brief: as §2

Itk = target: T8, Itk (Homo sapiens, UniProt Q08881); assay: Kinase inhibition assay (33P transfer), Itk; conditions: read-out: Itk-1
T8 construct: Kinases are expressed as either kinase domains or full length constructs; made in house
T8 sequence (Q08881 1-620): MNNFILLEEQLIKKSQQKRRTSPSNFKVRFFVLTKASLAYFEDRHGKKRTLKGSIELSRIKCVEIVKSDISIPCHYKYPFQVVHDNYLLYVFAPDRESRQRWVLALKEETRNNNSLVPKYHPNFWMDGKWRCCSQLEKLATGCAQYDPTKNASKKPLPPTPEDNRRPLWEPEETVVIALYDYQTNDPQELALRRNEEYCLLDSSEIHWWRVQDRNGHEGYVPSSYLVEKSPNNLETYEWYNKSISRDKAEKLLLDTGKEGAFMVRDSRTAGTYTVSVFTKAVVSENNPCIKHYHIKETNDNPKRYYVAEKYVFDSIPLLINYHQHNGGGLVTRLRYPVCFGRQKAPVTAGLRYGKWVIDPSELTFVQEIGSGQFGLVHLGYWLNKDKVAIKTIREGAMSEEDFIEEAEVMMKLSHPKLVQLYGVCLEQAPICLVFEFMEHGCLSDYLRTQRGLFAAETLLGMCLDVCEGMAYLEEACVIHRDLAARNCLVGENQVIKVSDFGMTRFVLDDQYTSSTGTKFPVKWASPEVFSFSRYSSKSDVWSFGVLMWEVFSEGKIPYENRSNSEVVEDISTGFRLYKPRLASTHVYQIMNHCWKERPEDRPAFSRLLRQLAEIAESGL
Method in brief: as §2

Zap-70 = target: T9, Zap-70 (Homo sapiens, UniProt P43403); assay: Kinase inhibition assay (33P transfer), Zap-70; conditions: read-out: Zap-1
T9 construct: Kinases are expressed as either kinase domains or full length constructs; made in house
T9 sequence (P43403 1-619): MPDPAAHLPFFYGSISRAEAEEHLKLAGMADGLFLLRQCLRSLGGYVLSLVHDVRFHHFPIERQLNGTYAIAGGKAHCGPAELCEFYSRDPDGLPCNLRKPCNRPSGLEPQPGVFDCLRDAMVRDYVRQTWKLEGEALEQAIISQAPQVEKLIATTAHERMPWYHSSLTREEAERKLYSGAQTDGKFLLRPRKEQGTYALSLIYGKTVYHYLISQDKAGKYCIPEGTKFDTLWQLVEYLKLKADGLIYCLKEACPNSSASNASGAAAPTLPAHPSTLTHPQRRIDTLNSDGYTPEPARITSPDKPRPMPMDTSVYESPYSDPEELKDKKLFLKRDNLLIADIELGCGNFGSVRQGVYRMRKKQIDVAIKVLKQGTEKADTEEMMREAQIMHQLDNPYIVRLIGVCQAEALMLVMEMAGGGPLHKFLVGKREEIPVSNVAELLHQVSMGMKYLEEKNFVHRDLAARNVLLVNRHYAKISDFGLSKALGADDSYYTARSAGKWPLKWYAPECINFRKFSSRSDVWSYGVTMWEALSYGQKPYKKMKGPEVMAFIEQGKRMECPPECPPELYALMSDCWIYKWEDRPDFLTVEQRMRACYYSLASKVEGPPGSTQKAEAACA
Method in brief: as §1

Lck = target: T10, Lck (Homo sapiens, UniProt P06239); assay: Kinase inhibition assay (33P transfer), Lck; conditions: read-out: Lck-1
T10 construct: Kinases are expressed as either kinase domains or full length constructs; made in house
Method in brief: as §1

IGFR-1 = target: T11, IGFR-1 (Homo sapiens, UniProt P08069); assay: Kinase inhibition assay, IGFR-1 (Table 2); conditions: Table 2, kinase inhibition class
T11 construct: Kinases are expressed as either kinase domains or full length constructs; made in house
T11 sequence (P08069 31-1367): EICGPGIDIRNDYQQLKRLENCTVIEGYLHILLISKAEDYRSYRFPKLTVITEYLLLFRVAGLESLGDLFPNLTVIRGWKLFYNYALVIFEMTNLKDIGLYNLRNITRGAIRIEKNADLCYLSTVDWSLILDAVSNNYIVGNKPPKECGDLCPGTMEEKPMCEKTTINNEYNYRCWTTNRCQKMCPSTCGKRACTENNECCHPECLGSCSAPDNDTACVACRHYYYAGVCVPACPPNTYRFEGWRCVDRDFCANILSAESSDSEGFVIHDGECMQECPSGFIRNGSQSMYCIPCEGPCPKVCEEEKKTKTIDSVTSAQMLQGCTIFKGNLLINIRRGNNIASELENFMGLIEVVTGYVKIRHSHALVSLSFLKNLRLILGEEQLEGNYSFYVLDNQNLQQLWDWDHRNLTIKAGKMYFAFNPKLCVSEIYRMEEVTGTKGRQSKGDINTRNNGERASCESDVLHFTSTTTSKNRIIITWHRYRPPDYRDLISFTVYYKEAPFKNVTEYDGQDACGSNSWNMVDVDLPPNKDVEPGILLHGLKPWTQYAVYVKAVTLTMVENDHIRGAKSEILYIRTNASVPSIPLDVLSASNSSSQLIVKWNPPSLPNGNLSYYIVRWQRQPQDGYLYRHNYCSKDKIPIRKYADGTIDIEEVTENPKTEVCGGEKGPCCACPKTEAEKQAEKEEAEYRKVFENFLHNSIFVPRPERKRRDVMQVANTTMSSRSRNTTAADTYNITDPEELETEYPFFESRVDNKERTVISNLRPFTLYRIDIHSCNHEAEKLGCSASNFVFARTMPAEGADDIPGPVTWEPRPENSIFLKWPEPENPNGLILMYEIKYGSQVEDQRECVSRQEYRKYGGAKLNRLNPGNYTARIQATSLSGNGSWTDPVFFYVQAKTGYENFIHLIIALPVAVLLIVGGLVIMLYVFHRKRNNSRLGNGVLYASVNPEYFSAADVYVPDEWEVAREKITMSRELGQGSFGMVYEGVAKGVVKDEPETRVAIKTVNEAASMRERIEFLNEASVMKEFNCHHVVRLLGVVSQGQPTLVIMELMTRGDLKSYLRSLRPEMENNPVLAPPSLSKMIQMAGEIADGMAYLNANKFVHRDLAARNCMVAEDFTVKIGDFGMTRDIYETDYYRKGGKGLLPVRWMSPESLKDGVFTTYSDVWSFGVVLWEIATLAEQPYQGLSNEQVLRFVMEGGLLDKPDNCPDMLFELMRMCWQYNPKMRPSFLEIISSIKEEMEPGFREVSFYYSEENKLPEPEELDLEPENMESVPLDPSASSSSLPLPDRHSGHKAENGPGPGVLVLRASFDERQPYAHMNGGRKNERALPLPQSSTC

| Compound | IC50 (Kdr) | IC50 (AKT) | IC50 (PDGFRB) | IC50 (EGFR) | IC50 (c-Met) | IC50 (ErbB2) | IC50 (Tek) | IC50 (Itk) | IC50 (Zap-70) | IC50 (Lck) | IC50 (IGFR-1) |
| --- | --- | --- | --- | --- | --- | --- | --- | --- | --- | --- | --- |
| COc1cc(Nc2ncnc(-n3ncc(-c4ccccc4)c3N)n2)cc(OC)c1OC [Compound 522] | 5.72 to 8.34 µM | > 10.7 µM | 5.72 to 8.34 µM | 5.72 to 8.34 µM | 5.72 to 8.34 µM | 8.34 to 10.7 µM | 8.34 to 10.7 µM | 0.954 to 5.72 µM | > 10.7 µM | 954 to 5720 nM | 954 to 5720 nM |
| COc1cc(Nc2ncnc(Nc3ccc(NS(=O)(=O)c4ccc([N+](=O)[O-])cc4)cc3)n2)cc(OC)c1OC [Compound 692] | < 0.723 µM | > 8.13 µM | < 0.723 µM | 0.723 to 4.34 µM | 4.34 to 6.32 µM | < 0.723 µM | 0.723 to 4.34 µM | 0.723 to 4.34 µM | 0.723 to 4.34 µM | < 723 nM | 723 to 4340 nM |
| COc1ccc(CNc2ncccc2-c2ncnc(Nc3cc(OC)c(OC)c(OC)c3)n2)nc1 [Compound 1085] | < 0.841 µM | > 9.46 µM | 0.841 to 5.05 µM | > 9.46 µM | > 9.46 µM | > 9.46 µM | > 9.46 µM | > 9.46 µM | > 9.46 µM | 841 to 5050 nM | > 9460 nM |
| O=C(O)Cc1cccc(Nc2ncnc(Nc3cc(-c4ccco4)n[nH]3)n2)c1 [Compound 983] | < 1.06 µM | 9.27 to 11.9 µM | 1.06 to 6.36 µM | < 1.06 µM | < 1.06 µM | > 11.9 µM | 6.36 to 9.27 µM | 1.06 to 6.36 µM | 6.36 to 9.27 µM | 6360 to 9270 nM | 1060 to 6360 nM |
| COc1cc(Nc2ncnc(Nc3cccc(C(C)=O)c3)n2)cc(OC)c1OC [Compound 697] | 1.01 to 6.07 µM | > 11.4 µM | < 1.01 µM | 1.01 to 6.07 µM | > 11.4 µM | 1.01 to 6.07 µM | 8.85 to 11.4 µM | > 11.4 µM | > 11.4 µM | < 1010 nM | 1010 to 6070 nM |
| CCN(CC)CCOc1cc(Nc2ncnc(-n3c(N)nc4ccccc43)n2)ccc1OC [Compound 649] | 0.892 to 5.35 µM | > 10 µM | 0.892 to 5.35 µM | > 10 µM | > 10 µM | – | 5.35 to 7.8 µM | 7.8 to 10 µM | > 10 µM | 892 to 5350 nM | < 892 nM |
| COC(=O)c1ccc(-c2cc(Nc3ncnc(Nc4cc(OC)c(OC)c(OC)c4)n3)[nH]n2)cc1 [Compound 523] | > 9.42 µM | > 9.42 µM | > 9.42 µM | 0.838 to 5.03 µM | < 0.838 µM | 7.33 to 9.42 µM | > 9.42 µM | 7.33 to 9.42 µM | > 9.42 µM | < 838 nM | < 838 nM |
| O=C(O)Cc1cccc(Nc2ncnc(Nc3cc(-c4ccccc4)n[nH]3)n2)c1 [Compound 981] | < 1.03 µM | > 11.6 µM | 1.03 to 6.2 µM | < 1.03 µM | < 1.03 µM | 1.03 to 6.2 µM | 1.03 to 6.2 µM | 1.03 to 6.2 µM | > 11.6 µM | 1030 to 6200 nM | < 1030 nM |
| COc1cc(Nc2ncnc(Nc3cccc(C(F)(F)F)c3)n2)cc(OC)c1OC [Compound 614] | 8.31 to 10.7 µM | > 10.7 µM | 0.949 to 5.7 µM | < 0.949 µM | > 10.7 µM | 0.949 to 5.7 µM | 8.31 to 10.7 µM | > 10.7 µM | > 10.7 µM | 949 to 5700 nM | < 949 nM |
